Tests used:
[1] = molecular target: T1, Gastric inhibitory polypeptide receptor (Homo sapiens, UniProt P48546)
T1 sequence (P48546 whole entry): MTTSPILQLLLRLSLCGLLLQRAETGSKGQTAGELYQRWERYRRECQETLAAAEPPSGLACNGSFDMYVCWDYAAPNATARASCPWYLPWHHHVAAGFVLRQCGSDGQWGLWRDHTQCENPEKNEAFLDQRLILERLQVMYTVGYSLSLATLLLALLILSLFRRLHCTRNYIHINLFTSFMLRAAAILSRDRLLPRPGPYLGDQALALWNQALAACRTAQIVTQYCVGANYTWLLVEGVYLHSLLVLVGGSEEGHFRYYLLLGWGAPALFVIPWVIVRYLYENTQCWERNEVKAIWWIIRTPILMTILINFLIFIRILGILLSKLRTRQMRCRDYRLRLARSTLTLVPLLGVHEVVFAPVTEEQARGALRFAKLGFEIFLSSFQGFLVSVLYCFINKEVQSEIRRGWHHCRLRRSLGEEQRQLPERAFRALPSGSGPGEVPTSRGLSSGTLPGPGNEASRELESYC

[2] = molecular target: Neurotensin receptor type 1 (Homo sapiens, UniProt P30989)
Neurotensin receptor type 1, sequence (P30989 whole entry): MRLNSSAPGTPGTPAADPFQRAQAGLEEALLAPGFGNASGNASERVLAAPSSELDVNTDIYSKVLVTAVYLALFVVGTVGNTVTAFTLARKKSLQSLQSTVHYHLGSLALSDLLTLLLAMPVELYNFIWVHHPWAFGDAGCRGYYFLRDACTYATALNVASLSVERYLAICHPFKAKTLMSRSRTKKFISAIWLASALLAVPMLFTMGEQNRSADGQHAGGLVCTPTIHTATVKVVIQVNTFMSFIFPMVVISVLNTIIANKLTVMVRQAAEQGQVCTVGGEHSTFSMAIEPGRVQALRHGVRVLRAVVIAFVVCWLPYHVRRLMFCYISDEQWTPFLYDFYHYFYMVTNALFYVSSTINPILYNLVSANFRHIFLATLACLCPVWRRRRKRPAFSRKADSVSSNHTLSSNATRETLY

[3] = molecular target: T2, Alpha-1A adrenergic receptor (Homo sapiens, UniProt P35348)
T2 sequence (P35348 whole entry): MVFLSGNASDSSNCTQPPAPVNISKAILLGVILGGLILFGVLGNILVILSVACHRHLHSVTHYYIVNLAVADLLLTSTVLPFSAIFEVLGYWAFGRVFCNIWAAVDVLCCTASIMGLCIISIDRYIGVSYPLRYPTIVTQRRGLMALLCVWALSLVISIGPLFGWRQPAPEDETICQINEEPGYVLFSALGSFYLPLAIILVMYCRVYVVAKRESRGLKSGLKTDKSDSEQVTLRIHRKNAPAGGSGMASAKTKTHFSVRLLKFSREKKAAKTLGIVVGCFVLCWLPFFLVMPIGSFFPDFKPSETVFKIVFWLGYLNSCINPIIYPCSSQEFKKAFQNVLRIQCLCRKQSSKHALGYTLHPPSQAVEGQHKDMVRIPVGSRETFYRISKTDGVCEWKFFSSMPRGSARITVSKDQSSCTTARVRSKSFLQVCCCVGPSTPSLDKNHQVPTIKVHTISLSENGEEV

[4] = molecular target: T3, Endothelin receptor type B (Homo sapiens, UniProt P24530)
T3 sequence (P24530 whole entry): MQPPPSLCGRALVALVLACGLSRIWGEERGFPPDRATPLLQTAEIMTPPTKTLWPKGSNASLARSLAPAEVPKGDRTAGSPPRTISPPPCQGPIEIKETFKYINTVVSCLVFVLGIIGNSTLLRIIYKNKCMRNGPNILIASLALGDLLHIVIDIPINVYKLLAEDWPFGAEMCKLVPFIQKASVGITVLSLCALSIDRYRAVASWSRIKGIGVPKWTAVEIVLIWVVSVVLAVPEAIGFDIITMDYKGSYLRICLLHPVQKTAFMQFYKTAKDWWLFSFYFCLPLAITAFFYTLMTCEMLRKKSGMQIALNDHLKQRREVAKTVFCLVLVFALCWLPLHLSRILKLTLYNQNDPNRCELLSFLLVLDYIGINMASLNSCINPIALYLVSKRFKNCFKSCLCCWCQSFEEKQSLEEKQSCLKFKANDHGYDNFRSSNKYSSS

[5] = molecular target: T4, Gamma-aminobutyric acid receptor subunit alpha-1/alpha-2/beta-2/gamma-2 (Homo sapiens, UniProt P14867+P18507+P47869+P47870); assay type: functional, cell-based
T4 sequence (P14867 whole entry): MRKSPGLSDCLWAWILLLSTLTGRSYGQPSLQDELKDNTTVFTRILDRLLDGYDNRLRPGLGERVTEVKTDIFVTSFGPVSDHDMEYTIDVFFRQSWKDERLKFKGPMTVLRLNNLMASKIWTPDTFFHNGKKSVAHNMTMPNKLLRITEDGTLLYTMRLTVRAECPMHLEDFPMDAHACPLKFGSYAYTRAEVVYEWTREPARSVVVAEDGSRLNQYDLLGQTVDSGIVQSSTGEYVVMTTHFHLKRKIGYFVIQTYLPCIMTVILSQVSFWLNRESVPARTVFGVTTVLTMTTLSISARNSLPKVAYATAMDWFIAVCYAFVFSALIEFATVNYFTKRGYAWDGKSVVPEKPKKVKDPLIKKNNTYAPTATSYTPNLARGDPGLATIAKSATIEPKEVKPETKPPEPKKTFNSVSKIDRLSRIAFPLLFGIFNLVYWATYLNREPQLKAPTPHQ
T4 sequence (P47870 whole entry): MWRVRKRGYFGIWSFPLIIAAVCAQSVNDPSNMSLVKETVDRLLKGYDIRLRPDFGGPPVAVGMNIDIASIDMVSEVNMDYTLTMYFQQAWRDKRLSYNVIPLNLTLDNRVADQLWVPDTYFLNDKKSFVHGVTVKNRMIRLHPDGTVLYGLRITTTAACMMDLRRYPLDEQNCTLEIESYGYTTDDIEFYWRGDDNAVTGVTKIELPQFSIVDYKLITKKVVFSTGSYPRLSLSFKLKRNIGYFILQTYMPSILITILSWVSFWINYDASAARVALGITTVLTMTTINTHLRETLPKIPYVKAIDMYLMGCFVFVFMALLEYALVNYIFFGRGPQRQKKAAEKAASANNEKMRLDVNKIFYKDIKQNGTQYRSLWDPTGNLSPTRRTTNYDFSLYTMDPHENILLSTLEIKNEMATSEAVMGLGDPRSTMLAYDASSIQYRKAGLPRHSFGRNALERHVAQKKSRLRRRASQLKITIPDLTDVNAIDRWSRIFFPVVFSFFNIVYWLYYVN
T4 sequence (P18507 whole entry): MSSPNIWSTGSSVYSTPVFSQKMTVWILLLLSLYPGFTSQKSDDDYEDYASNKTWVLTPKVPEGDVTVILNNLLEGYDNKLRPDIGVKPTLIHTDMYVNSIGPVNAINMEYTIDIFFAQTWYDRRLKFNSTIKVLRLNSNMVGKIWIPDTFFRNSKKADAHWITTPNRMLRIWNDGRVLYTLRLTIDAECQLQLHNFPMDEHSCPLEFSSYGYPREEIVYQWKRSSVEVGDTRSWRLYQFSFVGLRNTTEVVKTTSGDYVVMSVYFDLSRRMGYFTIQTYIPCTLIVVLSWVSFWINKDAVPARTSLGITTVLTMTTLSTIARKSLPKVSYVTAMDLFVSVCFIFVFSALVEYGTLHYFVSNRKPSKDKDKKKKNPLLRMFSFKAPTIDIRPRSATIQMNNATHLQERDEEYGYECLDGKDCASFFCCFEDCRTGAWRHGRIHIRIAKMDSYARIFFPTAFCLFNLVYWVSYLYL
T4 sequence (P47869 whole entry): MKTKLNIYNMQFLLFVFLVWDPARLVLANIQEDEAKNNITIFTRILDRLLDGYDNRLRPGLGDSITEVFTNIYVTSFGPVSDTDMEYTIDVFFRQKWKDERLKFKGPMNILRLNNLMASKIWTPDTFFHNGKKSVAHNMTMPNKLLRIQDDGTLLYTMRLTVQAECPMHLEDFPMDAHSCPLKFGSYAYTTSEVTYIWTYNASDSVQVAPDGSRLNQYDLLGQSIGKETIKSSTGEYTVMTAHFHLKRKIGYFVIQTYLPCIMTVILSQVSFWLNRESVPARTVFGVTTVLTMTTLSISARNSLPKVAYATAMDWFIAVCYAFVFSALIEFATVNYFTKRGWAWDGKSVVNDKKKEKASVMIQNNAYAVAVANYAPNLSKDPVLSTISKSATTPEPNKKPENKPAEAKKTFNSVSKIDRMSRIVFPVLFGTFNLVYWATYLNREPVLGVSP

[6] = molecular target: T4, Gamma-aminobutyric acid receptor subunit alpha-1/alpha-2/beta-2/gamma-2; assay type: functional, cell-based; remark: listed apart in the source
Cannabinoid receptor 1 = Cannabinoid receptor 1 (Homo sapiens, UniProt P21554); assay type: functional
Cannabinoid receptor 1, sequence (P21554 whole entry): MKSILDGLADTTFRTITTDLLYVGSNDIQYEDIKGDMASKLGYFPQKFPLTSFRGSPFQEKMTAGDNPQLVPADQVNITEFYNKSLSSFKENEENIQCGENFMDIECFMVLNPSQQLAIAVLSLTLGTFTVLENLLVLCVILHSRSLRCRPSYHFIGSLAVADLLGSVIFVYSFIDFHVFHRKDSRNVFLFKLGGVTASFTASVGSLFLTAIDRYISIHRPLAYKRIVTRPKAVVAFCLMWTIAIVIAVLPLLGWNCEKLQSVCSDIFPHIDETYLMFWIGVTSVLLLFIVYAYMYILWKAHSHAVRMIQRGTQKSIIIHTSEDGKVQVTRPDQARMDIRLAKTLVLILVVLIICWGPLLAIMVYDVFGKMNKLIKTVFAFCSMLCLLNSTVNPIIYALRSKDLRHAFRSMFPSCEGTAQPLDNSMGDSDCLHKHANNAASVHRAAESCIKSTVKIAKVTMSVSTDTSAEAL

B1 bradykinin receptor = molecular target: T5, B1 bradykinin receptor (Homo sapiens, UniProt P46663)
T5 sequence (P46663 whole entry): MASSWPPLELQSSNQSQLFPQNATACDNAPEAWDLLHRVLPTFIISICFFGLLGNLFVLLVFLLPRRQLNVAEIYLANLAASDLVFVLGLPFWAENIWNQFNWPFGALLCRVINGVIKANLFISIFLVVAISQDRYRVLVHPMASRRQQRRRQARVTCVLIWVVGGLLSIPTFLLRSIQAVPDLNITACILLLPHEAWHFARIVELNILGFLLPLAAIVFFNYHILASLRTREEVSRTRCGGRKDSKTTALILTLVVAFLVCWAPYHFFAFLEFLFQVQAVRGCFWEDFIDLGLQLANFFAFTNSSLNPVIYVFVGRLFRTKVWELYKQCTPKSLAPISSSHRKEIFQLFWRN

[7] = molecular target: Sodium channel protein type 5 subunit alpha (Homo sapiens, UniProt Q14524); assay type: functional, cell-based
Substance-P receptor = Substance-P receptor (Homo sapiens, UniProt P25103)
Substance-P receptor, sequence (P25103 whole entry): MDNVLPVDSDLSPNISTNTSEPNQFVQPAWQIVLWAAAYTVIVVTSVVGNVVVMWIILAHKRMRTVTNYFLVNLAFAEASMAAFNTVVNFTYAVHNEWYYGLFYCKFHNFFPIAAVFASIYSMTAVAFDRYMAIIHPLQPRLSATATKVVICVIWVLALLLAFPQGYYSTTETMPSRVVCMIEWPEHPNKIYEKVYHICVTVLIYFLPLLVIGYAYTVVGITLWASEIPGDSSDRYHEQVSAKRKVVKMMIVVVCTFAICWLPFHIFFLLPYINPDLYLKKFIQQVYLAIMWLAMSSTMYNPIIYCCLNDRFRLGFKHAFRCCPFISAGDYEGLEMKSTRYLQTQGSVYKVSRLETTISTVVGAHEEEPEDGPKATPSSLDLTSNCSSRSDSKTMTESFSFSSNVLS

[8] = molecular target: T6, Muscarinic acetylcholine receptor M2 (Homo sapiens, UniProt P08172)
T6 sequence (P08172 whole entry): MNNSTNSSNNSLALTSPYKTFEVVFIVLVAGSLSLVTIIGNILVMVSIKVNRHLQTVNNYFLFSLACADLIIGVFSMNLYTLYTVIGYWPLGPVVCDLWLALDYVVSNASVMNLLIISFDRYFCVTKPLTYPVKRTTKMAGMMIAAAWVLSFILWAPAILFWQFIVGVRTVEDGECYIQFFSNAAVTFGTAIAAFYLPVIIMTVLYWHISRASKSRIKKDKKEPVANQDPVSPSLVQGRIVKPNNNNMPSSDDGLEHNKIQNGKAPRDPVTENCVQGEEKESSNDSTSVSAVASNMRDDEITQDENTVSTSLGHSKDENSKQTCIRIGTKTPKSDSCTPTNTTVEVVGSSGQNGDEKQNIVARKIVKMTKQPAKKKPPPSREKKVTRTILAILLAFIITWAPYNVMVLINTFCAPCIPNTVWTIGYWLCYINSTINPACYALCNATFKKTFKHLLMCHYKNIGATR
Also: assay procedure not described here.

Row | Compound | AC50 [1] | AC50 [2] | AC50 [3] | AC50 [4] | AC50 [5] | AC50 [6] | AC50 (Cannabinoid receptor 1) | AC50 (B1 bradykinin receptor) | AC50 [7] | AC50 (Substance-P receptor) | AC50 [8]
1 | CNS(=O)(=O)Cc1ccc2[nH]cc(CCN(C)C)c2c1 | > 30 µM | > 30 µM | > 10 µM | > 30 µM | > 30 µM | > 30 µM | > 10 µM | > 30 µM | – | – | –
2 | CC(=O)O[C@H]1CC[C@@]2(C)C(=CC[C@@H]3[C@@H]2CC[C@]2(C)C(c4cccnc4)=CC[C@@H]32)C1 [ABIRATERONE ACETATE] | – | – | – | – | – | – | – | – | > 30 µM | – | –
3 | NCC(=O)CCC(=O)O [AMINOLEVULINIC ACID] | – | – | – | – | > 30 µM | > 30 µM | – | – | – | – | –
4 | COC(=O)C1=C(C)NC(C)=C(C(=O)OC2CCCN(Cc3ccccc3)C2)C1c1cccc([N+](=O)[O-])c1 (stereo not given) [BENIDIPINE] | – | – | – | – | – | – | – | – | > 50 µM | – | –
5 | CCN1CCN(C(=O)N[C@@H](C(=O)N[C@@H]2C(=O)N3C(C(=O)O)=C(CSc4nnnn4C)CS[C@H]23)c2ccc(O)cc2)C(=O)C1=O [CEFOPERAZONE] | – | – | – | – | > 30 µM | > 30 µM | – | – | – | – | –
6 | COc1ccc2c3c1O[C@H]1[C@@H](O)C=C[C@H]4[C@@H](C2)N(C)CC[C@@]341 [CODEINE] | > 30 µM | > 30 µM | > 10 µM | > 30 µM | – | – | > 10 µM | > 30 µM | > 30 µM | > 10 µM | > 10 µM
7 | CCCCc1ncc(/C=C(\Cc2cccs2)C(=O)O)n1Cc1ccc(C(=O)O)cc1 [EPROSARTAN] | > 30 µM | > 30 µM | > 10 µM | > 30 µM | – | – | > 10 µM | > 30 µM | – | > 10 µM | > 10 µM
8 | CCc1c(Cl)c(O)c(Cl)c(O)c1C(=O)O[C@H]1[C@H](O)[C@H](OC)[C@H](OC/C2=C\C=C\C[C@H](O)/C(C)=C/[C@H](CC)[C@@H](O[C@@H]3OC(C)(C)[C@@H](OC(=O)C(C)C)[C@H](O)[C@@H]3O)/C(C)=C/C(C)=C/C[C@@H]([C@@H](C)O)OC2=O)O[C@@H]1C [FIDAXOMICIN] | > 30 µM | > 30 µM | > 10 µM | > 30 µM | – | – | – | > 30 µM | – | 5.92 µM | > 10 µM
9 | CC(C)(C)c1cc(C(C)(C)C)c(NC(=O)c2c[nH]c3ccccc3c2=O)cc1O [IVACAFTOR] | – | – | – | – | – | – | – | – | – | – | > 10 µM
10 | CC(C)OC(=O)CCC/C=C\C[C@@H]1[C@@H](CC[C@@H](O)CCc2ccccc2)[C@H](O)C[C@@H]1O [LATANOPROST] | – | – | – | – | > 30 µM | > 30 µM | – | – | – | – | –
11 | COC(=O)C1=C(C)NC(C)=C(C(=O)OC(C)(C)CN(C)CCC(c2ccccc2)c2ccccc2)C1c1cccc([N+](=O)[O-])c1 (stereo not given) [LERCANIDIPINE] | – | – | – | – | – | – | – | – | > 50 µM | – | –
12 | CCC1(CC)C(=O)NCC(C)C1=O (stereo not given) [METHYPRYLON] | – | – | – | – | > 30 µM | > 30 µM | – | – | – | – | –
13 | CCCc1nc(C(C)(C)O)c(C(=O)OCc2oc(=O)oc2C)n1Cc1ccc(-c2ccccc2-c2nnn[nH]2)cc1 [OLMESARTAN MEDOXOMIL] | > 30 µM | > 30 µM | > 10 µM | > 50 µM | – | – | > 10 µM | > 50 µM | – | > 10 µM | –
14 | N#Cc1ccc([C@H]2CCc3cncn32)c(F)c1 [OSILODROSTAT] | – | > 10 µM | > 10 µM | > 10 µM | – | – | > 10 µM | > 10 µM | – | > 10 µM | > 10 µM
15 | Clc1ccc(CCCOCCCN2CCCCC2)cc1 [PITOLISANT] | – | – | – | – | – | – | – | – | 32 µM | – | –
16 | CN1CCC(=C2c3ccccc3CCc3sccc32)CC1 [PIZOTYLINE] | – | – | – | – | > 30 µM | > 30 µM | – | – | – | – | 0.059 µM
17 | CCCN(CCC)C(=O)C(CCC(=O)O)NC(=O)c1ccccc1 (stereo not given) [PROGLUMIDE] | > 30 µM | > 30 µM | – | > 30 µM | – | – | – | > 30 µM | – | > 10 µM | > 10 µM
18 | CN1C(=O)C(O)N=C(c2ccccc2)c2cc(Cl)ccc21 (stereo not given) [TEMAZEPAM] | > 30 µM | > 30 µM | > 10 µM | > 30 µM | – | – | – | > 30 µM | – | > 10 µM | > 10 µM
19 | CCN(CC)C(=O)N[C@H]1C[C@@H]2c3cccc4[nH]cc(c34)C[C@H]2N(C)C1 [TERGURIDE] | – | – | – | – | > 30 µM | > 30 µM | – | – | – | – | –
20 | C/C(O)=C(\C#N)C(=O)Nc1ccc(C(F)(F)F)cc1 [TERIFLUNOMIDE] | – | – | – | – | > 30 µM | > 30 µM | – | – | > 50 µM | – | –
21 | CC(CC(c1ccccc1)c1ccccc1)NC(C)(C)C (stereo not given) [TERODILINE] | – | – | – | – | – | – | – | – | 8.65 µM | – | –
22 | CN1CCN(CC/C=C2/c3ccccc3Sc3ccc(S(=O)(=O)N(C)C)cc32)CC1 [THIOTHIXENE] | > 30 µM | > 30 µM | 0.0624 µM | > 30 µM | – | – | > 10 µM | > 30 µM | – | 3.84 µM | –
23 | O=C(NCCNCC(O)COc1ccc(O)cc1)N1CCOCC1 (stereo not given) [XAMOTEROL] | – | – | – | – | > 30 µM | > 30 µM | – | – | – | – | –

Reference: ChEMBL document CHEMBL5291721, “A preclinical secondary pharmacology resource illuminates target-adverse drug reaction associations of marketed drugs” (Nat Commun, 2023)
